Legend:
[1] = test system: MDA-MB-231 xenograft-bearing nude mice; test: Biodistribution (boron by ICP-OES) in MDA-MB-231 xenograft model; type: in vivo, mouse; settings: 7.5 mg B/kg i.v., 1 and 4 h post-injection
Procedure: The biodistribution of Na[o-FESAN] (7.5 mg B/kg, i.v.) was evaluated in an MDA-MB-231 breast cancer xenograft model, and the results at 1 and 4 h are shown in Figure 2.
All animal experiments were approved by the Animal Care and Use Committee of the Institute of Science Tokyo and performed in accordance with the Guidelines for the Care and Use of Laboratory Animals as stated by the Institute of Science Tokyo (Approval number “D2021007”). All animals were maintained under controlled conditions of temperature and humidity with ad libitum water and feeding. MDA-MB-231 tumor-bearing mice (Balb/cSlc-nu/nu, female, 5–6 weeks old, 14–20 g, Sankyo Labo Service Co., Ltd., Hamamatsu, Japan) were prepared by injecting subcutaneously (s.c.) a suspension of MDA-MB-231 cells (8.0 × 10^5 cells/mouse) directly into the right thigh. The mice were kept on a regular chow diet and water, and maintained under a 12 h light/dark cycle in an ambient atmosphere. When the tumor diameter became 5 to 7 mm, the mice were injected via the tail vein with 200 µL PBS solution of Na[o-FESAN] (7.5 mg B/kg). […] After filtering through a hydrophobic filter, boron concentration was measured by inductively coupled plasma optical emission spectroscopy (ICP-OES) using an iCAP 7400 Duo elemental analyzer (Thermo Fisher Scientific Inc., Waltham, MA, USA).

MDA-MB-231 cells [2] = test: Viability and proliferation after thermal neutron irradiation (BNCT); type: cell-based, human
Procedure: (§1) For neutron irradiation, SKBR-3 and MDA-MB-231 cells were incubated with Na[o-FESAN] at 50 and 100 µM and were irradiated with thermal neutrons at the Triga Mark II nuclear reactor at the University of Pavia. […] Both surviving SKBR-3 and MDA-MB-231 cells that were treated with Na[o-FESAN] […] This clearly indicates the important contribution of neutron capture to induce a long-term cytotoxic effect. Another important point is that the toxic effect was observed using Na[o-FESAN] containing natural B. In fact, the amount of internalized B measured by ICP-MS after 24 h incubation with 50 or 100 µM Na[o-FESAN] contained only 19.9% of the active ^10B isotope. Assuming that in the case of epithelial tumors (with a diameter ranging from 15–20 µm), a density of ca. 10^8 cells for cm^3 is a reasonable number, [76] from the data obtained by ICP-MS analysis, it was possible to calculate the amount of ^10B internalized in cells expressed in ppm (µg/g).
(§2) SKBR-3 and MDA-MB-231 cells were seeded in 25 cm^2 flasks (12 flasks for each cell line) at a density of 6.5 × 10^5 cells. […]
(§3) Twenty-four hours after irradiation, cells were detached with 0.05% trypsin and 0.02% EDTA, and cell viability was evaluated using the trypan blue exclusion test and reported as the percentage of cells observed in treated and/or irradiated samples with respect to that observed in control cells. […] The cell growth was followed for 10 days, and at pre-determined times, the cells were washed with PBS, detached with 0.05% trypsin and 0.02% EDTA, and transferred into falcon tubes. Then, cells were sonicated for 30 s at 30% power in ice, and the total cell protein concentration (that is, proportional to the number of cells) from cell lysates was determined by the Bradford method, using bovine serum albumin as a standard. The cell growth rate was calculated as follows: [(number of cells(ti) − number of cells(t0))/number of cells(t0)] × 100 where (ti) is the number of cells measured at the various time intervals and (t0) is the number of cells at the starting point (t = 0) of the proliferation assay.

SKBR-3 cells [3] = test: as above; type: cell-based, human; settings: SKBR-3, 50 and 100 µM, 24 h, thermal neutrons 15 min at 30 kW, growth followed 10 days
Procedure: as §1, §2, §3

MDA-MB-231 cells [4] = test: Cytotoxicity, MTT assay before irradiation; type: cell-based, human; settings: MDA-MB-231, 24 h treatment
Procedure: (§4) The cytotoxicity of Na[o-FESAN] in breast cancer cells was evaluated to help the selection of the work concentrations for the uptake and irradiation studies. Moreover, the general requirements of therapeutic drugs include, among others, low cytotoxicity and high tumor uptake.
(§5) Before the irradiation studies, the concentrations of Na[o-FESAN] were selected. SKBR-3 and MDA-MB-231 cells were counted with a Neubauer chamber using Trypan Blue exclusion and a Zeiss Primovert microscope, seeded in 96-well plates (1–2 × 10^4 cells/200 µL medium) and incubated at 37 °C for 24 h to adhere. Then, the medium was discarded, and cells were incubated with Na[o-FESAN] at serial concentrations in complete medium in the range 1–300 µM for 24 h. After incubation, the cellular viability was determined using the MTT assay as previously described.

SKBR-3 cells [5] = test: Cytotoxicity, MTT assay before irradiation; type: cell-based, human; settings: SKBR-3, 24 h treatment
Procedure: as §4, §5

MDA-MB-231 cells [6] = test: Intracellular ROS (H2DCF-DA) after proton irradiation; type: cell-based, human; settings: MDA-MB-231, 50 and 100 µM, 24 h, protons 0.235 Gy, up to 48 h post-irradiation
Procedure: (§6) In non-irradiated cells (with/without treatment), no appreciable ROS formation was observed.
(§7) Intracellular ROS levels were measured using the 2′,7′-dichlorodihydrofluorescein diacetate (H2DCF-DA) fluorescent probe as previously described. […] Then, the probe (10 µM) in colorless DMEM medium (FluoroBrite™ DMEM, Gibco®, Waltham, MA, USA) was incubated with the cells for an additional 30 min. at 37 °C. Later, the medium was removed and replaced by a fresh one. The fluorescence intensity was continuously measured up to 48 h with a Varioskan LUX scanning multimode reader (Thermo Fisher Scientific, Waltham, MA, USA). Results of fluorescence (mean ± SD) were expressed as the fold change in fluorescence levels compared with controls (non-irradiated treated cells).

SKBR-3 cells [7] = test: as above; type: cell-based, human; settings: SKBR-3, 50 and 100 µM, 24 h, protons 0.235 Gy, up to 48 h post-irradiation
Procedure: as §6, §7

[8] = set-up: method as in PMID 24737689, PMID 35470838; settings: cited from earlier work
MDA-MB-231 cells [9] = test: Morphological analysis by TEM; type: cell-based, human; settings: MDA-MB-231, 50 µM, 24 h
Procedure: Transmission electron microscopy (TEM) was used to assess the structural integrity of MDA-MB-231 cells and to examine the effects at the organelle level before and 2 h after irradiation with proton beams (2.0 MeV).
MDA-MB-231 cells were seeded into 6-well plates at approx. 70% confluence. After 24 h, cells were treated with Na[o-FESAN] at 50 µM for 24 h. After incubation, cells were irradiated with a proton beam as described above and processed for TEM analysis 2 h later, following a previously described method. Briefly, the preparation of the cells included several steps of fixation: primary fixation with 3% glutaraldehyde in 0.1 M sodium cacodylate buffer, pH 7.3; secondary fixation with 1% osmium tetroxide in 0.1 M sodium cacodylate buffer, pH 7.3 for 3 h; tertiary fixation and contrasting with 0.5% uranyl acetate in the same buffer for 1 h, dehydration with ethanol and resin (Epon-Araldite) (Merck, Darmstadt, Germany) infiltration and embedding. The stained cells were then photographed and studied using a JEOL 100-SX electron microscope JEOL, Tokyo, Japan.

[10] = set-up: method as in PMID 36373493; settings: cited from earlier work

With [3,3′-Fe(1,2-C2B9H11)2]^− [Na[o-FESAN]] the “Clearance in blood and main organs (heart, liver, lung, kidney, spleen, muscle)” value [1] was “slow”, the Tumor uptake [1] was “remained relatively high” and the “Proliferation of surviving cells after neutron irradiation” value (MDA-MB-231 cells [2]; MDA-MB-231, 50 and 100 µM, 24 h, thermal neutrons 15 min at 30 kW, growth followed 10 days) was “marked inhibition of proliferation”. For the same substance, the “Number of viable cells after treatment and neutron irradiation vs non-treated irradiated cells” value (MDA-MB-231 cells [2]; MDA-MB-231, 24 h post irradiation, trypan blue) was “significantly different”, the “Proliferation of surviving cells after neutron irradiation” value (SKBR-3 cells [3]) was “marked inhibition of proliferation” and the IC50 (MDA-MB-231 cells [4]) was 103 ± 24.9 µM. The IC50 (SKBR-3 cells [5]) was 83.5 ± 18.6 µM, the “ROS levels after proton irradiation vs non-irradiated controls” value (MDA-MB-231 cells [6]) was “increased ROS levels in a dose-dependent manner” and the “ROS levels after proton irradiation vs non-irradiated controls” value (SKBR-3 cells [7]) was “increased ROS levels in a dose-dependent manner”. The Solubility in water [8] was “approx. 1 M”, the “Cell morphology (TEM), no irradiation” value (MDA-MB-231 cells [9]) was “moderate amount of vacuolization” and the “Cell morphology (TEM), 2 h after proton irradiation” value (MDA-MB-231 cells [9]; proton beam 2.0 MeV) was “necrosis”. The “Stability in cellular medium” value [10] was “did not suffer degradation”.
